Measurements from patent publication US7446199B2, “Compositions useful as inhibitors of protein kinases” (Vertex Pharmaceuticals Incorporated, priority 2003, dated 2008).

Columns and labels:
Format in all cases: biochemical
[1] = biological target: c-Met (Homo sapiens, UniProt P08581); assay: Ki determination for the inhibition of c-Met, coupled enzyme system; conditions: 200 μM ATP, 10 μM polyGluTyr, 80 nM c-Met, 30° C.
Protocol: Compounds were screened for their ability to inhibit c-Met kinase activity using a standard coupled enzyme system (Fox et al., Protein Sci. 1998, 7, 2249). Reactions were carried out in a solution containing 100 mM HEPES (pH 7.5), 10 mM MgCl2, 25 mM NaCl, 300 μM NADH, 1 mM DTT, and 1.5% DMSO. Final substrate concentrations in the assay were 200 μM ATP (Sigma Chemicals, St Louis, Mo.) and 10 μM polyGluTyr (Sigma Chemical Company, St. Louis). Reactions were carried out at 30° C. and 80 nM c-Met. Final concentrations of the components of the coupled enzyme system were 2.5 mM phosphoenolpyruvate, 300 μM NADH, 30 μg/ml pyruvate kinase and 10 μg/ml lactate dehydrogenase.
An assay stock buffer solution was prepared containing all of the reagents listed above with the exception of ATP and a test compound of the present invention. The assay stock buffer solution (175 μl) was incubated in a 96 well plate with 5 μl of the test compound of the present invention at final concentrations spanning 0.006 μM to 12.5 μM at 30° C. for 10 minutes. Typically, a 12-point titration was conducted by preparing serial dilutions (from 10 mM compound stocks) with DMSO of the test compounds of the present invention in daughter plates. The reaction was initiated by the addition of 20 μl of ATP (final concentration 200 μM). Rates of reaction were obtained using a Molecular Devices Spectramax plate reader (Sunnyvale, Calif.) over 10 minutes at 30° C. The Ki values were determined from the rate data as a function of inhibitor concentration.

[2] = biological target: GSK-3β, (AA 1-420) (Homo sapiens, UniProt P49841); assay: GSK-3 inhibition assay, coupled enzyme system; conditions: 20 μM ATP, 300 μM peptide, 20 nM GSK-3b, 30° C.; read-out: Ki values (GSK3)
Protocol: Compounds of the present invention were screened for their ability to inhibit GSK-3β, (AA 1-420) activity using a standard coupled enzyme system (Fox et al., Protein Sci. 1998, 7, 2249). Reactions were carried out in a solution containing 100 mM HEPES (pH 7.5), 10 mM MgCl2, 25 mM NaCl, 300 μM NADH, 1 mM DTT and 1.5% DMSO. Final substrate concentrations in the assay were 20 μM ATP (Sigma Chemicals, St Louis, Mo.) and 300 μM peptide (American Peptide, Sunnyvale, Calif.). Reactions were carried out at 30° C. and 20 nM GSK-3b. Final concentrations of the components of the coupled enzyme system were 2.5 mM phosphoenolpyruvate, 300 μM NADH, 30 μg/ml pyruvate kinase and 10 μg/ml lactate dehydrogenase.
An assay stock buffer solution was prepared containing all of the reagents listed above with the exception of ATP and the test compound of the present invention. The assay stock buffer solution (175 μl) was incubated in a 96 well plate with 5 μl of the test compound of the present invention at final concentrations spanning 0.002 μM to 30 μM at 30° C. for 10 min. Typically, a 12 point titration was conducted by preparing serial dilutions (from 10 mM compound stocks) with DMSO of the test compounds of the present invention in daughter plates. The reaction was initiated by the addition of 20 μl of ATP (final concentration 20 μM). Rates of reaction were obtained using a Molecular Devices Spectramax plate reader (Sunnyvale, Calif.) over 10 min at 30° C. The Ki values were determined from the rate data as a function of inhibitor concentration.

[3] = biological target: T1, JAK3 (Homo sapiens, UniProt P52333); assay: JAK3 inhibition assay (ELISA, Poly (Glu, Ala, Tyr) coated plates); conditions: 2 mM ATP, 60 minutes at 30° C.
T1 sequence (P52333 1-1124): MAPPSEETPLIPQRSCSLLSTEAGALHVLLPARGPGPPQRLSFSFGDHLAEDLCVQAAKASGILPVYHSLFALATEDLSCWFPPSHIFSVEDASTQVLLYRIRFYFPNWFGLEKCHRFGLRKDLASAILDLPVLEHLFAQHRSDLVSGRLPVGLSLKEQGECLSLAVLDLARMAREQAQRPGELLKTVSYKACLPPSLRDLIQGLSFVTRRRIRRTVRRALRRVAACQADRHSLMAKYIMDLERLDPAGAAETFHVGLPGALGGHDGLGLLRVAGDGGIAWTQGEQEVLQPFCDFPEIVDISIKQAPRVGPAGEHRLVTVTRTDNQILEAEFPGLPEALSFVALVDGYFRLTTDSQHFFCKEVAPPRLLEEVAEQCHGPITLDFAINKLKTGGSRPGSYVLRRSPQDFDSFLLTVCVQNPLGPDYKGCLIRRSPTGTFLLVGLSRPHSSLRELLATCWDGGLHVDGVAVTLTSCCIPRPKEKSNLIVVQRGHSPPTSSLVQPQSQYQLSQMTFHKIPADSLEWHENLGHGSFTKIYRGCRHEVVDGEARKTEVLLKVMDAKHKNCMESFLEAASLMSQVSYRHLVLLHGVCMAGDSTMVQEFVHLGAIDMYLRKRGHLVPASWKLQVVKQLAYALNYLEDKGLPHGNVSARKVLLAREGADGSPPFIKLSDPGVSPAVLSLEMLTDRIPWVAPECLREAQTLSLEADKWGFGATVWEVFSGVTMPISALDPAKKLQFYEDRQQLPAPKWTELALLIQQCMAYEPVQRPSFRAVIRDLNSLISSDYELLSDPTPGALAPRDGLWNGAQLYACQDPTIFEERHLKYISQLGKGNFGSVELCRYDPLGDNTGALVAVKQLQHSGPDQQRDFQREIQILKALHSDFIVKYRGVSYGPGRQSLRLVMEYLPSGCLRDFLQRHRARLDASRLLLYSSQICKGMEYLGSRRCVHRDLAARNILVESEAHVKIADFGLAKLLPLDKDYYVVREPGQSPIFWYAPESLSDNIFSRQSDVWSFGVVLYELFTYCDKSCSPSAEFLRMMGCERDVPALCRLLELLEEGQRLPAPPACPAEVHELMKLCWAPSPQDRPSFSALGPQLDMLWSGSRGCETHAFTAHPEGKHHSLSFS
Protocol: Compound inhibition of JAK3 was assayed by the method described by G. R. Brown, et al., Bioorg. Med. Chem. Lett. 2000, vol. 10, pp 575-579 in the following manner. Into Maxisorb plates, previously coated at 4° C. with Poly (Glu, Ala, Tyr) 6:3:1 then washed with phosphate buffered saline 0.05% and Tween (PBST), was added 2 mM ATP, 5 mM MgCl2, and a solution of compound in DMSO. The reaction was started with JAK enzyme and the plates incubated for 60 minutes at 30° C. The plates were then washed with PBST, […] HRP-Conjugated 4G10 antibody was added, and the plate incubated for 90 minutes at 30° C. The plate was again washed with PBST, […] TMB solution is added, and the plates were incubated for another 30 minutes at 30° C. Sulfuric acid ([…] of 1M) was added to stop the reaction and the plate is read at 450 nm to obtain the optical densities for analysis to determine IC50 values.

[4] = biological target: KDR (Homo sapiens, UniProt P35968); assay: KDR enzyme assay, coupled enzyme assay; conditions: 300 μM ATP, 10 μM poly E4Y, 30 nM KDR, 37° C.
Protocol: Compounds were screened for their ability to inhibit KDR using a standard coupled enzyme assay (Fox et al., Protein Sci., (1998) 7, 2249). Assays were carried out in a mixture of 200 mM HEPES 7.5, 10 mM MgCl2, 25 mM NaCl, 1 mM DTT and 1.5% DMSO. Final substrate concentrations in the assay were 300 μM ATP (Sigma Chemicals) and 10 μM poly E4Y (Sigma). Assays were carried out at 37° C. and 30 nM KDR. Final concentrations of the components of the coupled enzyme system were 2.5 mM phosphoenolpyruvate, 200 μM NADH, 30 μg/ML pyruvate kinase and 10 μg/ml lactate dehydrogenase.
An assay stock buffer solution was prepared containing all of the reagents listed above, with the exception of ATP and the test compound of interest. 177 μl of the stock solution was placed in a 96 well plate followed by addition of 3 μl of 2 mM DMSO stock containing the test compound (final compound concentration 30 μM). The plate was preincubated for about 10 minutes at 37° C. and the reaction initiated by addition of 20 μl of ATP (final concentration 300 μM). Rates of reaction were obtained using a Molecular Devices plate reader (Sunnyvale, Calif.) over a 5 minute read time at 37° C.

Chain of GSK-3β, (AA 1-420) (P49841 whole entry, the tested form may be a part): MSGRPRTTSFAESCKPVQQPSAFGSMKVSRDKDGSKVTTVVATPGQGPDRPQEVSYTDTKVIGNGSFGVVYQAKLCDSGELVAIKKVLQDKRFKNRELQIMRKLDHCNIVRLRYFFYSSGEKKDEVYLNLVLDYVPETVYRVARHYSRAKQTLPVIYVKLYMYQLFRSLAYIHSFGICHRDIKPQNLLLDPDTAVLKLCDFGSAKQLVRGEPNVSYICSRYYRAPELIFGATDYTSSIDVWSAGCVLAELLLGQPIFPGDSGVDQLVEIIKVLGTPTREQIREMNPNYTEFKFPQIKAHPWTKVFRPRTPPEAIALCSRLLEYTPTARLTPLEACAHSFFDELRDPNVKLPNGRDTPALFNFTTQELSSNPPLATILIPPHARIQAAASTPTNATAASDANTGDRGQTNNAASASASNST
Chain of KDR (P35968 20-1356): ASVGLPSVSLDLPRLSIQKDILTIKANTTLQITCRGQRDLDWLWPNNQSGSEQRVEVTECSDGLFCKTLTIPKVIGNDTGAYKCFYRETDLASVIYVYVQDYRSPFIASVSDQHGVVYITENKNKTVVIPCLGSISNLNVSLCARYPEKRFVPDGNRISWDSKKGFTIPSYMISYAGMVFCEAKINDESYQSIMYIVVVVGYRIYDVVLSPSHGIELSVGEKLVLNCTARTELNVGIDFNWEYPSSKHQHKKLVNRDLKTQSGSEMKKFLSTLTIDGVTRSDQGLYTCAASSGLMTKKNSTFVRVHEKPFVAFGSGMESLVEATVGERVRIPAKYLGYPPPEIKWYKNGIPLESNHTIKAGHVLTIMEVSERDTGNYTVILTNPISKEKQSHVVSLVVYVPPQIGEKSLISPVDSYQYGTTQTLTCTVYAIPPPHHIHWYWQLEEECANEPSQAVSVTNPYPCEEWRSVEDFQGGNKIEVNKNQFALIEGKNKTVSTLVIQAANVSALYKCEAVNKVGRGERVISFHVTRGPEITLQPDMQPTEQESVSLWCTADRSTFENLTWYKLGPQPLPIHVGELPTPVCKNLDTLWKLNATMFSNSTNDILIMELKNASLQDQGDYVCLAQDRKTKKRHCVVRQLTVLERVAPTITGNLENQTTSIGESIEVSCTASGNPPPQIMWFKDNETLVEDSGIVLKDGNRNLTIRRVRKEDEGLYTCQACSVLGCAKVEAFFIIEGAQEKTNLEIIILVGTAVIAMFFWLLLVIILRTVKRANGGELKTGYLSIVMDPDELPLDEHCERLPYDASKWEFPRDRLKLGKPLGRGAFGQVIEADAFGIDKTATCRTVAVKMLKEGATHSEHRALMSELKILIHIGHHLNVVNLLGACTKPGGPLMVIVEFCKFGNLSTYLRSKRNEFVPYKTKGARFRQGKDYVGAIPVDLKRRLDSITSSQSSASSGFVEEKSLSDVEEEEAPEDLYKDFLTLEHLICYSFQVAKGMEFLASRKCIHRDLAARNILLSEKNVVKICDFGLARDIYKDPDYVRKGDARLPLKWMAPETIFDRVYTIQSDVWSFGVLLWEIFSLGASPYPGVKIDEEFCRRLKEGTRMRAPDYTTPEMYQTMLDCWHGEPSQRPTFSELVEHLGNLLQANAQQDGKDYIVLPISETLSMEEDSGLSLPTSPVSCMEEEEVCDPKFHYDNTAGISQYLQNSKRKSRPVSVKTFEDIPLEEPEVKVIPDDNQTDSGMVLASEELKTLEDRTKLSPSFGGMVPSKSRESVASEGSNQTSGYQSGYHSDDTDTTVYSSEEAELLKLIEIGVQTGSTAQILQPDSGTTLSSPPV
Chain of c-Met (P08581 25-1390): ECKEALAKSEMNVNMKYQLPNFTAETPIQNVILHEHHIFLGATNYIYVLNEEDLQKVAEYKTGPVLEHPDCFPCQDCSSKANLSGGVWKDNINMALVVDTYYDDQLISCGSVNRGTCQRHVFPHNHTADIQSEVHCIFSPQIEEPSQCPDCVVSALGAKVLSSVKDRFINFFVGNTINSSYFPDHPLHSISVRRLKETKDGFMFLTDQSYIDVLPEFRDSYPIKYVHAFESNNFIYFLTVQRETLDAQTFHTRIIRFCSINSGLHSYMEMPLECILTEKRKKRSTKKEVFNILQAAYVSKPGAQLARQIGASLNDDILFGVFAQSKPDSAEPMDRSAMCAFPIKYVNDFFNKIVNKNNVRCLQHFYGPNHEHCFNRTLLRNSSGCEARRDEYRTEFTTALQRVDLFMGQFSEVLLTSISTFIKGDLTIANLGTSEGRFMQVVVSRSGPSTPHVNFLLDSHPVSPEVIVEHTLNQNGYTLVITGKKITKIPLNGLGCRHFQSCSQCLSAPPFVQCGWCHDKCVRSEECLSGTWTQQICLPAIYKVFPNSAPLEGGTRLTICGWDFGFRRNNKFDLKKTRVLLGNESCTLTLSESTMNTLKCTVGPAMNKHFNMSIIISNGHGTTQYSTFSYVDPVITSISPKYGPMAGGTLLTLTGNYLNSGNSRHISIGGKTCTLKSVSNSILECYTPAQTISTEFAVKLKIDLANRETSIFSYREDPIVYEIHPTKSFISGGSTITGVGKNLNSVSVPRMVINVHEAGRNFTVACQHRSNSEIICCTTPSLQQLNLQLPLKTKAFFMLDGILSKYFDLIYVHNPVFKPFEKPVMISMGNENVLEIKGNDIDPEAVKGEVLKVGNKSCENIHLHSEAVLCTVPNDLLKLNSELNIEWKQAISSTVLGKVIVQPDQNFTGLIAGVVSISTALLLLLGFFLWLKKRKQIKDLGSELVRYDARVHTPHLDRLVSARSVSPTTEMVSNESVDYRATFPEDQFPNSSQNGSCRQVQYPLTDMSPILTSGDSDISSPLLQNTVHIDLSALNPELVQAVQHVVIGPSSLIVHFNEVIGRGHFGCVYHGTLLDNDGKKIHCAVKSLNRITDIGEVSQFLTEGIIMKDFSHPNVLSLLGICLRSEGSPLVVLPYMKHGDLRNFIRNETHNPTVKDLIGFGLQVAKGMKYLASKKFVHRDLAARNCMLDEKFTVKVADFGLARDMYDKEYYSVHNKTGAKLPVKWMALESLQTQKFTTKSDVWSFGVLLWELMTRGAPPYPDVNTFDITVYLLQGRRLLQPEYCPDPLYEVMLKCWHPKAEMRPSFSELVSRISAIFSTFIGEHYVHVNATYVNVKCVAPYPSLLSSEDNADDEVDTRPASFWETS

Compound	Ki [1] [nM]	Ki [2] [nM]	Ki [3] [nM]	Ki [4] [nM]
Fc1cccc(-c2cnoc2-c2c[nH]c3c(F)cccc23)c1F [Compound 33, 3-[4-(2,3-Difluoro-phenyl)-isoxazol-5-yl]-7-fluoro-1H-indole]		1000 to 12500		
c1ccc(-c2cnoc2-c2c[nH]c3ncccc23)nc1 [Compound 50, 3-(4-Pyridin-2-yl-isoxazol-5-yl)-1H-pyrrolo[2,3-b]pyridine]			1000 to 12500	
c1cncc(-c2cnoc2-c2c[nH]c3ncccc23)c1 [Compound 52, 3-(4-Pyridin-3-yl-isoxazol-5-yl)-1H-pyrrolo[2,3-b]pyridine]	1000 to 12500	1000 to 12500	1000 to 12500	
Fc1cccc(-c2cnoc2-c2c[nH]c3nc(N4CCCC4)ccc23)c1F [Compound 100, 3-[4-(2,3-Difluoro-phenyl)-isoxazol-5-yl]-6-pyrrolidin-1-yl-1H-pyrrolo[2,3-b]pyridine]	1000 to 12500			
Fc1cccc(-c2cnoc2-c2c[nH]c3nc(Cl)ccc23)c1F [Compound 101, 6-Chloro-3-[4-(2,3-difluoro-phenyl)-isoxazol-5-yl]-1H-pyrrolo[2,3-b]pyridine]	1000 to 12500			
Fc1cccc(-n2cnnc2-c2c[nH]c3ncccc23)c1F [Compound 107, 3-[4-(2,3-Difluoro-phenyl)-4H-[1,2,4]triazol-3-yl]-1H-pyrrolo[2,3-b]pyridine]	1000 to 12500			
COC(=O)Cn1ccc2c(-c3oncc3-c3cccc(F)c3F)c[nH]c2c1=O [Compound 146, {3-[4-(2,3-Difluoro-phenyl)-isoxazol-5-yl]-7-oxo-1,7-di hydro-pyrrolo[2,3-c]pyridin-6-yl}-acetic acid methyl ester]	1000 to 12500			
O=c1c2[nH]cc(-c3oncc3-c3cccc(F)c3F)c2ccn1Cc1ccccc1 [Compound 147, 6-Benzyl-3-[4-(2,3-difluoro-phenyl)-isoxazol-5-yl]-1,6-dihydro-pyrrolo[2,3-c]pyridin-7-one]	1000 to 12500			
[O-][n+]1cccc2c(-c3oncc3-c3cccc(F)c3F)c[nH]c21 [Compound 151]	1000 to 12500	1000 to 12500		

Further lines, results first:

Ki [1] [nM]	Ki [2] [nM]	Ki [3] [nM]	Ki [4] [nM]	Compound
1000 to 12500				Fc1cccc(-n2nnnc2-c2c[nH]c3ncccc23)c1F [Compound 11, 3-[1-(2,3-Difluoro-phenyl)-1H-tetrazol-5-yl]-1H-pyrrolo [2,3-b]pyridine]
1000 to 12500				CCNc1ccc2c(-c3oncc3-c3cccc(F)c3F)n[nH]c2n1 [Compound 30, {3-[4-(2,3-Difluoro-phenyl)-isoxazol-5-yl]-1H-pyrazolo[3,4-b]pyridin-6-yl}-ethyl-amine]
1000 to 12500				CN(C)c1ccc2c(-c3oncc3-c3cccc(F)c3F)n[nH]c2n1 [Compound 32]
1000 to 12500		200 to 1000	1000 to 12500	COc1cccc(-c2cnoc2-c2c[nH]c3ncccc23)c1OC [Compound 51, 3-[4-(2,3-Dimethoxy-phenyl)-isoxazol-5-yl]-1H-pyrrolo[2,3-b]pyridine]
< 200	200 to 1000		< 200	N#Cc1ccc(-c2cnc3[nH]cc(-c4oncc4-c4cccc(F)c4F)c3c2)cc1 [Compound 89, 4-{3-[4-(2,3-Difluoro-phenyl)-isoxazol-5-yl]-1H-pyrrolo [2,3-b]pyridin-5-yl}-benzonitrile]
200 to 1000	1000 to 12500		200 to 1000	Fc1cccc(-c2cnoc2-c2n[nH]c3ncc(Br)cc23)c1F [Compound 148]
